Measured values: patent US20060040871A1, “Bacterial transforming agent” (priority 2003, published 2006)
Like-named read-outs stand apart in the source and are kept apart here.

Key:
MRSA [1] = test: Antimicrobial plus BTA against recent clinical MRSA isolates (Table 7); type: cell-based, Staphylococcus aureus
Source text: The four clinical isolates were isolated from patients during the first three months of 2003. […] An intermediate MRSA has been included, as methicillin-resistance has been achieved by means other than production of PBP2a.

VRE = test: Antimicrobial plus BTA against VRE (Table 7); type: cell-based, enterococci; details: +BTA 1.0%
MRSA [2] = test: MIC of ceftazidime or cefuroxime for MRSA grown with or without GBE (Table 2); type: cell-based, Staphylococcus aureus; details: for MIC of ceftazidime / MIC of cefuroxime: GBE (0.2%)
Source text: Importantly, the usefulness of the agents of the present invention is not limited to increasing bacterial sensitivity to methicillin.

S. aureus = test: MIC of methicillin for already sensitive S. aureus with GBE, with or without 1% human plasma (Table 6); type: cell-based, Staphylococcus aureus; details: for MIC of methicillin: GBE 0.00075M [0.15%]
Source text: As previously mentioned, a common cause of auto-infection is due to S. aureus carried on the anterior nares. […] The transforming agents of the present invention may also be used in combination with a suitable antimicrobial to eliminate nasal carriage of MSSA prior to cardiac surgery or other invasive procedures carrying a high risk of auto-infection.

[3] = tested on: MRSA with intermediate resistance to glycopeptides; test: MIC of vancomycin or teicoplanin for MRSA with intermediate resistance to glycopeptides grown with GBE or NAGly (Table 4); type: cell-based, Staphylococcus aureus; details: GBE 0.001M; for MIC: Staphylococcus aureus
MRSA [4] = details: increasing concentrations of glycine in the growth medium; cited from earlier work

**Q.** What does the source list for `NCC(=O)OCc1ccccc1` [GBE, Glycine Benzyl Ester]?
**A.** Oxacillin (antimicrobial plus BTA; quantity not named, MIC implied) (MRSA [1]; EMRSA-16, +BTA 0.01%): 4 µg/mL; Cephalexin (antimicrobial plus BTA; quantity not named, MIC implied) (MRSA [1]; EMRSA-16, +BTA 0.1%): 2 µg/mL; Oxacillin (antimicrobial plus BTA; quantity not named, MIC implied) (MRSA [1]; EMRSA-16, +BTA 0.1%): 2 µg/mL; Cephalexin (antimicrobial plus BTA; quantity not named, MIC implied) (MRSA [1]; EMRSA-16, +BTA 1.0%): 1 µg/mL; Oxacillin (antimicrobial plus BTA; quantity not named, MIC implied) (MRSA [1]; EMRSA-16, +BTA 1.0%): 1 µg/mL; Vancomycin (antimicrobial plus BTA; quantity not named, MIC implied) (MRSA [1]; EMRSA-16, +BTA 1.0%): 0.25 µg/mL; Oxacillin (antimicrobial plus BTA; quantity not named, MIC implied) (MRSA [1]; EMRSA-17, +BTA 0.01%): 6 µg/mL; Cephalexin (antimicrobial plus BTA; quantity not named, MIC implied) (MRSA [1]; EMRSA-17, +BTA 0.1%): 2 µg/mL; Oxacillin (antimicrobial plus BTA; quantity not named, MIC implied) (MRSA [1]; EMRSA-17, +BTA 0.1%): 2 µg/mL; Cephalexin (antimicrobial plus BTA; quantity not named, MIC implied) (MRSA [1]; EMRSA-17, +BTA 1.0%): 1.5 µg/mL; Oxacillin (antimicrobial plus BTA; quantity not named, MIC implied) (MRSA [1]; EMRSA-17, +BTA 1.0%): 1.5 µg/mL; Vancomycin (antimicrobial plus BTA; quantity not named, MIC implied) (MRSA [1]; EMRSA-17, +BTA 1.0%): 0.25 µg/mL; Oxacillin (antimicrobial plus BTA; quantity not named, MIC implied) (MRSA [1]; I-MRSA, +BTA 0.01%): 2 µg/mL; Cephalexin (antimicrobial plus BTA; quantity not named, MIC implied) (MRSA [1]; I-MRSA, +BTA 0.1%): 1 µg/mL; Oxacillin (antimicrobial plus BTA; quantity not named, MIC implied) (MRSA [1]; I-MRSA, +BTA 0.1%): 1 µg/mL; Cephalexin (antimicrobial plus BTA; quantity not named, MIC implied) (MRSA [1]; I-MRSA, +BTA 1.0%): 0.75 µg/mL; Oxacillin (antimicrobial plus BTA; quantity not named, MIC implied) (MRSA [1]; I-MRSA, +BTA 1.0%): 0.75 µg/mL; Vancomycin (antimicrobial plus BTA; quantity not named, MIC implied) (MRSA [1]; I-MRSA, +BTA 1.0%): < 0.25 µg/mL; Vancomycin (antimicrobial plus BTA; quantity not named, MIC implied) (VRE): 64 µg/mL; MIC of ceftazidime (MRSA [2]; CD40 (EMRSA-1)): 4 µg/mL; MIC of cefuroxime (MRSA [2]; CD40 (EMRSA-1)): 2 µg/mL; MIC of ceftazidime (MRSA [2]; DS09 (EMRSA-1)): 2 µg/mL; MIC of cefuroxime (MRSA [2]; DS09 (EMRSA-1)): 2 µg/mL; MIC of ceftazidime (MRSA [2]; E15-97 (EMRSA-15)): 4 µg/mL; MIC of cefuroxime (MRSA [2]; E15-97 (EMRSA-15)): 4 µg/mL; MIC of ceftazidime (MRSA [2]; E16-96 (EMRSA-16)): 2 µg/mL; MIC of cefuroxime (MRSA [2]; E16-96 (EMRSA-16)): 4 µg/mL; MIC of ceftazidime (MRSA [2]; JF1-32 (EMRSA-1)): 2 µg/mL; MIC of cefuroxime (MRSA [2]; JF1-32 (EMRSA-1)): 2 µg/mL; MIC of ceftazidime (MRSA [2]; MC01 (EMRSA-1)): 2 µg/mL; MIC of cefuroxime (MRSA [2]; MC01 (EMRSA-1)): 4 µg/mL; MIC of ceftazidime (MRSA [2]; NCTC 12493): 2 µg/mL; MIC of cefuroxime (MRSA [2]; NCTC 12493): 4 µg/mL; MIC of ceftazidime (MRSA [2]; PS3-32 (EMRSA-1)): 4 µg/mL; MIC of cefuroxime (MRSA [2]; PS3-32 (EMRSA-1)): 4 µg/mL; MIC of ceftazidime (MRSA [2]; SN31 (EMRSA-1)): 4 µg/mL; MIC of cefuroxime (MRSA [2]; SN31 (EMRSA-1)): 4 µg/mL; MIC of ceftazidime (MRSA [2]; ST11 (EMRSA-1)): 2 µg/mL; MIC of cefuroxime (MRSA [2]; ST11 (EMRSA-1)): 2 µg/mL; MIC of ceftazidime (MRSA [2]; SW2-32 (EMRSA-1)): 4 µg/mL; MIC of cefuroxime (MRSA [2]; SW2-32 (EMRSA-1)): 4 µg/mL; transformation to ceftazidime and cefuroxime sensitivity (MRSA [2]; Table 2): transforms the MRSA tested to ceftazidime and cefuroxime sensitivity; MIC of methicillin (S. aureus; 5518 (EMRSA-1), no plasma): <0.25 µg/mL; MIC of methicillin (S. aureus; 5518 (EMRSA-1), plasma (1%)): 0.5 µg/mL; MIC of methicillin (S. aureus; LHS77, no plasma): <0.25 µg/mL; MIC of methicillin (S. aureus; LHS77, plasma (1%)): <0.25 µg/mL; MIC of methicillin (S. aureus; LHS78, no plasma): <0.25 µg/mL; MIC of methicillin (S. aureus; LHS78, plasma (1%)): 1 µg/mL; MIC of methicillin (S. aureus; LHS79, no plasma): <0.25 µg/mL; MIC of methicillin (S. aureus; LHS79, plasma (1%)): 0.25 µg/mL; MIC of methicillin (S. aureus; LHS80, no plasma): <0.25 µg/mL; MIC of methicillin (S. aureus; LHS80, plasma (1%)): 0.25 µg/mL; MIC of methicillin (S. aureus; LHS81, no plasma): <0.25 µg/mL; MIC of methicillin (S. aureus; LHS81, plasma (1%)): <0.25 µg/mL; MIC of methicillin (S. aureus; LHS82, no plasma): <0.25 µg/mL; MIC of methicillin (S. aureus; LHS82, plasma (1%)): 4 µg/mL; MIC of methicillin (S. aureus; LHS83, no plasma): <0.25 µg/mL; MIC of methicillin (S. aureus; LHS83, plasma (1%)): 0.25 µg/mL; MIC of methicillin (S. aureus; LHS84, no plasma): <0.25 µg/mL; MIC of methicillin (S. aureus; LHS84, plasma (1%)): 2 µg/mL; MIC of methicillin (S. aureus; LHS85, no plasma): <0.25 µg/mL; MIC of methicillin (S. aureus; LHS85, plasma (1%)): 0.5 µg/mL; MIC of methicillin (S. aureus; LHS86, no plasma): <0.25 µg/mL; MIC of methicillin (S. aureus; LHS86, plasma (1%)): 0.25 µg/mL; MIC of methicillin (S. aureus; LHS87, no plasma): <0.25 µg/mL; MIC of methicillin (S. aureus; LHS87, plasma (1%)): 4 µg/mL; MIC of methicillin (S. aureus; LHS88, no plasma): <0.25 µg/mL; MIC of methicillin (S. aureus; LHS88, plasma (1%)): 0.5 µg/mL; MIC of methicillin (S. aureus; LHS89, no plasma): <0.25 µg/mL; MIC of methicillin (S. aureus; LHS89, plasma (1%)): 0.5 µg/mL; MIC of methicillin (S. aureus; LHS90, no plasma): <0.25 µg/mL; MIC of methicillin (S. aureus; LHS90, plasma (1%)): <0.25 µg/mL; MIC of methicillin (S. aureus; LHS91, no plasma): <0.25 µg/mL; MIC of methicillin (S. aureus; LHS91, plasma (1%)): <0.25 µg/mL; MIC of methicillin (S. aureus; LHS92, no plasma): <0.25 µg/mL; MIC of methicillin (S. aureus; LHS92, plasma (1%)): 1 µg/mL; MIC of methicillin (S. aureus; LHS93, no plasma): <0.25 µg/mL; MIC of methicillin (S. aureus; LHS93, plasma (1%)): 0.5 µg/mL; MIC of methicillin (S. aureus; LHS94, no plasma): <0.25 µg/mL; MIC of methicillin (S. aureus; LHS94, plasma (1%)): 0.5 µg/mL; effect on methicillin sensitivity of already sensitive bacteria (S. aureus; Table 6): increases the sensitivity of already sensitive bacteria to methicillin; MIC of vancomycin ([3]; L266 (first line), EMRSA-17 (VISA)): 2 µg/mL; MIC of vancomycin ([3]; L266 (second line), EMRSA-17 (VISA)): 1 µg/mL; MIC of vancomycin ([3]; NCTC 12493): 0.12 µg/mL; MIC ([3]; MRSA / NCTC 12493, read-out: MIC of teicoplanin, NCTC 12493): 0.06 µg/mL; MIC ([3]; MRSA, read-out: MIC of teicoplanin, L265, EMRSA-16 (TISA)): 1 µg/mL; MIC ([3]; MRSA, read-out: MIC of teicoplanin, L266, EMRSA-16 (TISA)): 2 µg/mL

**Q.** For `NCC(=O)O` [Glycine, glycine], which “effect on MIC of methicillin against MRSA” value (MRSA [4]) is on record?
**A.** reduces the MIC of methicillin against MRSA
